The source of these data is publication PMC3243944 (Biopolymers, 2011).

Data set [1] has as its system 5-helix bundle (5HB) protein construct derived from the hRSV fusion (F) protein. The conditions noted are these: protein-based (5HB) FP screening assay; cited from earlier work.
Data set [2] is described as follows: Solubility in aqueous buffer. It counts as physicochemical.

Where no end group is shown, it is not given here.

By solubility is commonly meant the dissolved amount per volume that the medium holds. Higher therefore signals much dissolved substance. ISQVNEKINQSLAFIRKSDE [C20]: the “Binding affinity to the 5HB” value in data set [1] is “low micromolar”. Further, the solubility in data set [2] was below 2000 µg/mL.
